# Experimental data: patent US5663197A, “2-(1-hydroxyethyl)-5-hydroxynaphtho[2,3-b]furan-4,9-dione and antitumor agents comprising this compound” (priority 1992, dated 1997)
# System: carcinogenic promotion (skin papillomas in mice)
# Assay: Inhibition of two-step skin carcinogenesis in mice skin
# Format: in vivo, mouse (female ICR)
# Details: DMBA initiator, TPA promoter, 20 weeks; FIG. 28 (NFD 85 nmol), FIG. 29 (lapacoal)
# Method: Female ICR mice were used as test animals. Fifteen mice were housed in a cage and kept on a commercial pellet diet and drinking water ad libitum until the end of the experiment. The mice were purchased at their age of six-week-old. Dorsal hair of mice was shaved, and next day, 390 nmol of 7,12-dimethylbenz(a)anthracene (DMBA) in 0.1 ml acetone was applied, as an initiator, on the shaved back. One week later, 1.7 nmol of 12-O-tetradecanoylphorbol-13-acetate (TPA) in 0.1 ml acetone was applied, as a promoter, to the same place twice a week. This procedure was repeated for 20 weeks.
# Mice were observed once a week for the number of papillomas larger than 1 mm, and the experimental results were given as the percentage of papilloma-bearing mice in each group and the number of papillomas per mouse.
smiles,measurement,value
"CC(C)=CCC1=C(O)C(=O)c2ccccc2C1=O [lapacoal, reference compound]",inhibitory effect on carcinogenic promotion in skin,inhibitory effect
